In ChEMBL document CHEMBL1201862, “PubChem BioAssay data set” (2004):
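A five-concentration, 48-hour dose response in 96-well plates underlies each endpoint, interpolated linearly between surrounding concentrations. The concentration for 50% growth inhibition is given as GI50.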 Calls of active or inactive are those of the source. No stated cut-off is given here; in the data, active = GI50 up to about 1.1 µM and inactive = higher.

How the values were obtained:
Assay in all cases: inhibition of tumour cell growth, NCI panel, 48 h
LOX IMVI = system: LOX IMVI
IGROV-1 = system: IGROV-1
CCRF-CEM = system: CCRF-CEM
MOLT-4 = system: MOLT-4
NCI-H522 = system: NCI-H522
SF-539 = system: SF-539
SN12C = system: SN12C
SK-MEL-2 = system: SK-MEL-2
K562 = system: K562
SK-OV-3 = system: SK-OV-3
Malme-3M = system: Malme-3M
HOP-92 = system: HOP-92
ACHN = system: ACHN
HCT-116 = system: HCT-116
UACC-257 = system: UACC-257
COLO 205 = system: COLO 205
SK-MEL-5 = system: SK-MEL-5
RPMI-8226 = system: RPMI-8226

Measured: GI50

COC(=O)c1c[nH]cc1CCc1c[nH]cc1C(=O)OC
inactive: LOX IMVI > 100 µM | IGROV-1 > 100 µM | CCRF-CEM > 100 µM | MOLT-4 > 100 µM | NCI-H522 58.1 µM | SF-539 > 100 µM | SN12C > 100 µM | SK-MEL-2 > 100 µM | K562 > 100 µM | SK-OV-3 > 100 µM | Malme-3M > 100 µM | HOP-92 > 100 µM | ACHN > 100 µM | HCT-116 > 100 µM | UACC-257 > 100 µM | COLO 205 > 100 µM

CC(C)NCC(O)COC(=O)c1cccs1 (centres undefined)
inactive: LOX IMVI > 100 µM | IGROV-1 > 100 µM | CCRF-CEM > 100 µM | MOLT-4 > 100 µM | NCI-H522 > 100 µM | SN12C > 100 µM | SK-MEL-2 > 100 µM | SK-MEL-5 > 100 µM | K562 > 100 µM | SK-OV-3 > 100 µM | Malme-3M > 100 µM | RPMI-8226 > 100 µM | HOP-92 > 100 µM | ACHN > 100 µM | UACC-257 > 100 µM | COLO 205 > 100 µM

CC(Oc1ccc2cc(C(=O)c3ccccc3)c(=O)oc2c1)C(=O)O (centres undefined)
inactive: LOX IMVI > 100 µM | IGROV-1 > 100 µM | CCRF-CEM > 100 µM | MOLT-4 > 100 µM | NCI-H522 > 100 µM | SF-539 > 100 µM | SN12C > 100 µM | SK-MEL-5 > 100 µM | K562 > 100 µM | SK-OV-3 > 100 µM | Malme-3M > 100 µM | HOP-92 > 100 µM | ACHN > 100 µM | HCT-116 > 100 µM | UACC-257 > 100 µM | COLO 205 > 100 µM

CCOC(=N)CC(=O)Nc1ccccc1CC
inactive: LOX IMVI > 100 µM | IGROV-1 > 100 µM | CCRF-CEM > 100 µM | MOLT-4 > 100 µM | NCI-H522 > 100 µM | SF-539 > 100 µM | SN12C > 100 µM | SK-MEL-2 > 100 µM | SK-MEL-5 > 100 µM | K562 > 100 µM | SK-OV-3 > 100 µM | Malme-3M > 100 µM | ACHN > 100 µM | HCT-116 > 100 µM | UACC-257 > 100 µM | COLO 205 > 100 µM

C[C@@H]1C(=O)CC2C(C)(C)CCC[C@]2(C)[C@@]12CC[C@]1(C=COC1)O2 (some centres undefined)
inactive: LOX IMVI 33.4 µM | IGROV-1 36.9 µM | CCRF-CEM 23.4 µM | MOLT-4 16 µM | NCI-H522 19.2 µM | SF-539 39.5 µM | SN12C 18.7 µM | SK-MEL-2 22.7 µM | K562 24.3 µM | SK-OV-3 27.5 µM | Malme-3M 27.8 µM | HOP-92 13.8 µM | ACHN 32.5 µM | HCT-116 30.2 µM | COLO 205 32.3 µM

CCCCCCCCCCCCCCCC(=O)OCCOCCOCCOCCOCCOC(=O)CCCCCCCCCCCCCCC
inactive: LOX IMVI > 100 µM | IGROV-1 > 100 µM | CCRF-CEM > 100 µM | MOLT-4 > 100 µM | NCI-H522 > 100 µM | SN12C > 100 µM | SK-MEL-2 > 100 µM | SK-MEL-5 > 100 µM | K562 > 100 µM | SK-OV-3 > 100 µM | Malme-3M > 100 µM | RPMI-8226 > 100 µM | HOP-92 > 100 µM | ACHN > 100 µM | HCT-116 > 100 µM | UACC-257 > 100 µM | COLO 205 > 100 µM

CCOC(=O)Cc1nc2ccccc2s1
inactive: LOX IMVI 17.8 µM | IGROV-1 39 µM | CCRF-CEM 18.8 µM | MOLT-4 25.6 µM | NCI-H522 19.6 µM | SF-539 18.4 µM | SN12C 16.8 µM | SK-MEL-2 18.2 µM | SK-MEL-5 20.6 µM | K562 25.4 µM | SK-OV-3 50.9 µM | Malme-3M 16.3 µM | ACHN 17.1 µM | HCT-116 18.2 µM | UACC-257 17.3 µM | COLO 205 38.6 µM

CC(C)c1cc(OCC(O)CO)cc(C(C)C)c1 (centres undefined)
inactive: LOX IMVI > 100 µM | IGROV-1 > 100 µM | CCRF-CEM > 100 µM | MOLT-4 > 100 µM | NCI-H522 > 100 µM | SF-539 > 100 µM | SN12C > 100 µM | SK-MEL-2 > 100 µM | SK-MEL-5 > 100 µM | K562 > 100 µM | SK-OV-3 > 100 µM | Malme-3M > 100 µM | HOP-92 > 100 µM | ACHN > 100 µM | HCT-116 > 100 µM | UACC-257 > 100 µM | COLO 205 > 100 µM
